Experimental data as given in patent publication US20080234310A1, “Methods and Compositions for Slowing Aging” (priority 2003, published 2008).

Columns and labels:
[1] = system: ion channels associated with glutamate receptors; assay: Glutamate-induced uptake of 45Ca into rat brain synaptosomes (calcium-blocking properties); assay type: biochemical; conditions: glutamate-induced 45Ca uptake, K(43/21); compound 5 μM; 5 min at 30° C.
Procedure: Evaluation of the calcium-blocking properties of the compounds was conducted with P2-fraction of synaptosomes, which were isolated from the brain of newborn (8-11 days) rats according to the protocol described in [Bachurin et al. Neuroprotective and cognition enhancing properties of MK-801 flexible analogs. Structure-activity relationships.//Ann. N.Y. Acad. Sci., 2001, v. 939, pp. 219-235]. In this test, the ability of the compounds to inhibit a specific uptake of calcium ions via ion channels associated with glutamate receptors was determined.
Synaptosomes were placed into the incubation buffer A (132 mM NaCl, 5 mM KCl, 5 mM HEPES) and were kept at 0° C. during the entire experiment. Aliquots of synaptosomes (50 μl) were placed in the media A, containing investigated compounds and a preparation of the radiolabeled calcium, ^45Ca. The calcium uptake was stimulated by the introduction into the media of the 20 μl of the 10 mM solution of glutamate. After a 5 min incubation at 30° C. the reaction was interrupted by a filtration through GF/B filters, which were then triple washed with the cold buffer B (145 mM KCl, 10 mM tris, 5 mM trilon B). Then, filters were subjects for the detection of the radiolabeled calcium. The measurement was conducted using a scintillation counter ‘SL-4000 Intertechnic”. The initial screening was conducted with a concentration of each compound of 5 μM. A specific calcium uptake was calculated using the following equation
where: • Ca1 is a calcium uptake in a control experiment (no glutamate or test compound added); • Ca2 is a calcium uptake in the presence of glutamate only (Glutamate Induced Calcium Uptake—GICU); • Ca3 is a calcium uptake in the presence of a test compound only (no glutamate added); Ca4 is a calcium uptake in the presence of both glutamate and a test compound.

C57/B female mice [2] = assay: Lifespan: amount of alive animals depending on age, Dimebon in drinking water; assay type: in vivo; conditions: for Amount of alive animals: 3 mg/kg daily in water
Procedure: (§1) Experiments were conducted with C57/B female mice, starting from their age of 12 months. Mice were kept on cells, 10 animals per a cell. Both control and experimental group included 50 animals in each group. […] The day-night cycle was 12 hours.
(§2) Prior to the experiment, daily and weekly water consumption by the animals in one cell was measured. Dimebon was added in water in such amount that each animal would consume 3 mg/kg of Dimebon per day in average. Bottles with water containing Dimebon were replaced every 7 days. Animals in the control group were receiving pure water.
(§3) Prior to the experiment, all the animals were weighed, and an average weight was determined in every group, every cell, as well as the weight of all animals in every cell. The condition of skin, hair, and eyes were also determined by visual inspection. […] Evaluation of all these parameters was conducted on a monthly basis.
(§4) Statistics was calculated using Student T-test and ‘ Chi-squared’ criteria.
Evaluation of the parameter of the length of life was conducted employing methods used in demography. This parameter was a probability of death in every age group.

[3] = Dynamics in weight of animals depending on age and Dimebon consumption; assay type: in vivo, mice; conditions: for average weight of animals: 3 mg/kg daily in water
Procedure: as §1, §2, §3, §4

C57/B female mice [4] = assay: Vision disturbances (development of age-related cataract) depending on age and Dimebon consumption; assay type: in vivo; conditions: for amount of animals that have cataract: 3 mg/kg daily in water
Procedure: as §1, §2, §3, §4

C57/B female mice [5] = assay: Disturbances in skin-hair integument (alopecia) depending on age and Dimebon consumption; assay type: in vivo; conditions: for % of animals that have alopecia: 3 mg/kg daily in water
Procedure: as §1, §2, §3, §4

Molecule: c1ccc(CN2CCc3[nH]c4ccccc4c3C2)cc1 [Compound 3, 2-benzyl-2,3,4,5-tetrahydro-1H-pyrido(4,3-b)indol]
- % Ca to control [1]: 28.5 ± 2.5%

Molecule: CN1CCc2[nH]c3ccccc3c2C1 [Compound 7, 2-methyl-2,3,4,5-tetrahydro-1H-pyrido(4,3-b)indol]
- % Ca to control [1]: 35.5 ± 2.5%

Molecule: 2-methyl-5-(2-(6-methyl-3-pyridyl)-ethyl)-2,3,4,5-tetrahydro-1H-pyrido(4,3-b)indol sesquisulfate monohydrate [Compound 5]
- % Ca to control [1]: 33.5 ± 1.5%

Molecule: 2-dimethyl-2,3,4,5-tetrahydro-1H-pyrido(4,3-b)indol methyl iodide [Compound 8]
- % Ca to control [1]: 18.0 ± 2.5%

Molecule: Cc1ccc2c(c1)c1c(n2Cc2ccccc2)CCN(C)C1.Cl.Cl [Compound 4, 2,8-dimethyl-5-benzyl-2,3,4,5-tetrahydro-1H-pyrido(4,3-b)indol dihydrochloride]
- % Ca to control [1]: 22.5 ± 3.5%

Molecule: CN1CCc2[nH]c3ccc(Br)cc3c2C1.Cl [Compound 9, 2-methyl-8-bromo-2,3,4,5-tetrahydro-1H-pyrido(4,3-b)indol hydrochloride]
- % Ca to control [1]: 30.0 ± 3.5%

Molecule: Cc1ccc2c(c1)c1c(n2CCc2ccc(C)nc2)CCN(C)C1.Cl.Cl [Compound 6, 2,8-dimethyl-5-(2-(6-methyl-3-pyridyl)-ethyl)-2,3,4,5-tetrahydro-1H-pyrido(4,3-b)indol dihydrochloride]
- % Ca to control [1]: 48.5 ± 2.5%
- Amount of alive animals (C57/B female mice [2]; age 12 months (start), 50 animals per group): 50
- Amount of alive animals (C57/B female mice [2]; age 13 months): 50
- Amount of alive animals (C57/B female mice [2]; age 14 months): 49
- Amount of alive animals (C57/B female mice [2]; age 15 months): 48
- Amount of alive animals (C57/B female mice [2]; age 16 months): 47
- Amount of alive animals (C57/B female mice [2]; age 17 months): 47
- Amount of alive animals (C57/B female mice [2]; age 18 months): 42
- Amount of alive animals (C57/B female mice [2]; age 19 months): 39
- Amount of alive animals (C57/B female mice [2]; age 20 months): 35
- Amount of alive animals (C57/B female mice [2]; age 21 months): 32
- Amount of alive animals (C57/B female mice [2]; age 22 months): 28
- Amount of alive animals (C57/B female mice [2]; age 23 months): 25
- Amount of alive animals (C57/B female mice [2]; age 24 months): 18
- Amount of alive animals (C57/B female mice [2]; age 25 months): 11
- probability of death versus control group (C57/B female mice [2]; all age groups, 3 mg/kg daily, significant (P<0.05) at 20-23 months): lower
- age-related weight depletion ([3]; 3 mg/kg daily, depletion only in 23 month old animals, variation versus control not significant (P>0.05)): No weight depletion was observed
- average weight of animals ([3]; age 12 months (start)): 24.7 g
- average weight of animals ([3]; age 13 months): 24.7 g
- average weight of animals ([3]; age 14 months): 24.7 g
- average weight of animals ([3]; age 15 months): 26 g
- average weight of animals ([3]; age 16 months): 25.5 g
- average weight of animals ([3]; age 17 months): 24.7 g
- average weight of animals ([3]; age 18 months): 25.5 g
- average weight of animals ([3]; age 19 months): 26 g
- average weight of animals ([3]; age 20 months): 26 g
- average weight of animals ([3]; age 21 months): 25.6 g
- average weight of animals ([3]; age 22 months): 25.1 g
- average weight of animals ([3]; age 23 months): 24.7 g
- average weight of animals ([3]; age 24 months): 24 g
- average weight of animals ([3]; age 25 months): 23.7 g
- amount of animals that had cataract versus control group (C57/B female mice [4]; 3 mg/kg daily, P<0.05 for 13 to 20 months old mice): significantly less
- amount of animals that have cataract (C57/B female mice [4]; age 12 months (start)): 0%
- amount of animals that have cataract (C57/B female mice [4]; age 13 months): 0%
- amount of animals that have cataract (C57/B female mice [4]; age 14 months): 0%
- amount of animals that have cataract (C57/B female mice [4]; age 15 months): 4%
- amount of animals that have cataract (C57/B female mice [4]; age 16 months): 6%
- amount of animals that have cataract (C57/B female mice [4]; age 17 months): 6%
- amount of animals that have cataract (C57/B female mice [4]; age 18 months): 10%
- amount of animals that have cataract (C57/B female mice [4]; age 19 months): 13%
- amount of animals that have cataract (C57/B female mice [4]; age 20 months): 17%
- amount of animals that have cataract (C57/B female mice [4]; age 21 months): 25%
- % of animals that have alopecia (C57/B female mice [5]; age 12 months (start)): 0%
- % of animals that have alopecia (C57/B female mice [5]; age 13 months): 0%
- % of animals that have alopecia (C57/B female mice [5]; age 14 months): 2%
- % of animals that have alopecia (C57/B female mice [5]; age 15 months): 6%
- % of animals that have alopecia (C57/B female mice [5]; age 16 months): 10%
- % of animals that have alopecia (C57/B female mice [5]; age 17 months): 20%
- % of animals that have alopecia (C57/B female mice [5]; age 18 months): 12%
- % of animals that have alopecia (C57/B female mice [5]; age 19 months): 14%
- % of animals that have alopecia (C57/B female mice [5]; age 20 months): 34%
- % of animals that have alopecia (C57/B female mice [5]; age 21 months): 35%
- development of non-fatal pathologies, such as loss of vision and alopecia (C57/B female mice [5]; old animals fed Dimebon 3 mg/kg daily, alopecia difference 13th-21st month P<0.05): slowing of the development

Molecule: CCN1CCc2[nH]c3ccccc3c2C1 [Compound 2, 2-ethyl-2,3,4,5-tetrahydro-1H-pyrido(4,3-b)indol]
- % Ca to control [1]: 36.5 ± 0.5%
